The target of one assay is T1, p38 alpha (Homo sapiens, UniProt Q16539).
T1 construct: purchased Invitrogen PV3304
The assay is described as follows: P38 alpha enzyme inhibition assay (Alphascreen kinase activity assay). It is filed as biochemical. As to conditions: 100 pM p38 alpha, 2 hours preincubation at 25° C., 250 μM ATP, ATF-2 fusion protein; read-out: p38α inhibition. Put shortly:
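Phosphorylation of ATF-2 fusion protein (0.3 μg/ml) read by AlphaScreen with anti-phospho-ATF2 antibody after 1 h kinase reaction at 25 °C, initiated by 250 μM ATP. Compounds first incubated 2 h at 25 °C with 100 pM p38 alpha in pH 7.5 HEPES buffer, 1% DMSO. IC50 derived from concentration-response data.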

For assay [1], the system named is Peripheral Blood Mononuclear Cells (PBMCs), TNFα release. Nature of the assay: LPS-stimulated PBMC TNFα release assay. Type of assay: cell-based. Particulars: human PBMC, LPS (10 ng/ml), 18 h, compound 1 h before LPS; read-out: LPS-stimulated PBMC TNFα release inhibition. In a few lines:
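TNFα in cell-free supernatant, read on MSD plates, gave % inhibition curves and IC50 (≥3 separate experiments). Healthy-donor PBMCs had 1 h compound exposure at 37 °C in 1% FBS medium, then 18 h stimulation with 10 ng/ml LPS, after a 3 h serum-free rest.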

Each structure is given as a SMILES string. Where a name gives a salt, the structure may show the parent alone.

T1 sequence (Q16539 whole entry): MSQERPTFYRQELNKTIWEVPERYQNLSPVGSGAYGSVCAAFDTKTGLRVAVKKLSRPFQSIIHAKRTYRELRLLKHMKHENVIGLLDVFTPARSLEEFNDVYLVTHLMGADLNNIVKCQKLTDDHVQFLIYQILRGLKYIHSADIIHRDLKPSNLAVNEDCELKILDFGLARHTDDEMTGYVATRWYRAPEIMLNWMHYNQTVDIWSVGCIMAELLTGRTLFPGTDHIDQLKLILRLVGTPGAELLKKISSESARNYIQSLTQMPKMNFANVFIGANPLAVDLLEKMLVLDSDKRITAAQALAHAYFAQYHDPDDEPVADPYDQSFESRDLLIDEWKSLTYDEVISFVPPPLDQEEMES

Take `CCC(CC)c1nnc2ccc(O[C@@H]3CC[C@H](NC(=O)Nc4cc(C(C)(C)C)nc(C(=O)NCC(C)(C)N5CCN(C)CC5)n4)c4ccccc43)cn12` [Example 173, 4-(tert-butyl)-N-(2-methyl-2-(4-methylpiperazin-1-yl)propyl)-6-(3-((1S,4R)-4-((3-(pentan-3-yl)-[1,2,4]triazolo[4,3-a]pyridin-6-yl)oxy)-1,2,3,4-tetrahydronaphthalen-1-yl)ureido)pyrimidine-2-carboxamide formate salt]: the IC50 on p38 alpha is under 1 nM; in assay [1] it was 1 to 5 nM.

For the compound `CCC(CC)c1nnc2ccc(O[C@@H]3CC[C@H](NC(=O)Nc4cc(C(C)(C)C)nc(C(=O)NCC(C)(C)N5CC(OC)C5)n4)c4ccccc43)cn12` [Example 174, 4-(tert-butyl)-N-(2-(3-methoxyazetidin-1-yl)-2-methylpropyl)-6-(3-((1S,4R)-4-((3-(pentan-3-yl)-[1,2,4]triazolo[4,3-a]pyridin-6-yl)oxy)-1,2,3,4-tetrahydronaphthalen-1-yl)ureido)pyrimidine-2-carboxamide formate salt], the IC50 at p38 alpha is under 1 nM; in assay [1], 1 to 5 nM.

For the compound `CCC(CC)c1nnc2ccc(O[C@@H]3CC[C@H](NC(=O)Nc4cc(C(C)(C)C)nc(C(=O)NCC(C)(C)N(C)C)n4)c4ccccc43)cn12` [Example 175, 4-(tert-butyl)-N-(2-(dimethylamino)-2-methylpropyl)-6-(3-((1S,4R)-4-((3-(pentan-3-yl)-[1,2,4]triazolo[4,3-a]pyridin-6-yl)oxy)-1,2,3,4-tetrahydronaphthalen-1-yl)ureido)pyrimidine-2-carboxamide formate salt], the IC50 on p38 alpha is under 1 nM; in assay [1] it was 1 to 5 nM.

Turning to `CCC(CC)c1nnc2ccc(O[C@@H]3CC[C@H](NC(=O)Nc4cc(C(C)(C)C)nc(C(=O)NCC(C)(C)N(C)CC)n4)c4ccccc43)cn12` [Example 176, 4-(tert-butyl)-N-(2-(ethyl(methyl)amino)-2-methylpropyl)-6-(3-((1S,4R)-4-((3-(pentan-3-yl)-[1,2,4]triazolo[4,3-a]pyridin-6-yl)oxy)-1,2,3,4-tetrahydronaphthalen-1-yl)ureido)pyrimidine-2-carboxamide], the IC50 at p38 alpha is under 1 nM; in assay [1], 1 to 5 nM.

As for `COCCN(C)C(C)(C)CNC(=O)c1nc(NC(=O)N[C@H]2CC[C@@H](Oc3ccc4nnc(C(C)(C)COC)n4c3)c3ccccc32)cc(C(C)(C)C)n1` [Example 178, 4-(tert-butyl)-6-(3-((1S,4R)-4-((3-(1-methoxy-2-methylpropan-2-yl)-[1,2,4]triazolo[4,3-a]pyridin-6-yl)oxy)-1,2,3,4-tetrahydronaphthalen-1-yl)ureido)-N-(2-((2-methoxyethyl)(methyl)-amino)-2-methylpropyl)pyrimidine-2-carboxamide], the IC50 was 1 to 10 nM on p38 alpha and 1 to 5 nM in assay [1].

As for `CN(CCO)CCNC(=O)c1nc(NC(=O)N[C@H]2CC[C@@H](Oc3ccc4nnc(C5(C)CCCC5)n4c3)c3ccccc32)cc(C(C)(C)C)n1` [Example 181, 4-(tert-butyl)-N-(2-((2-hydroxyethyl)(methyl)amino)ethyl)-6-(3-((1S,4R)-4-((3-(1-methylcyclopentyl)-[1,2,4]triazolo[4,3-a]pyridin-6-yl)oxy)-1,2,3,4-tetrahydronaphthalen-1-yl)ureido)pyrimidine-2-carboxamide], the IC50 at p38 alpha is under 1 nM; in assay [1], 1 to 5 nM.

Take `CC(C)(C)c1cc(NC(=O)N[C@H]2CC[C@@H](Oc3ccc4nnc(C5(C)CCCC5)n4c3)c3ccccc32)nc(C(=O)NCCN2CCCOCC2)n1` [Example 182, N-(2-(1,4-oxazepan-4-yl)ethyl)-4-(tert-butyl)-6-(3-((1S,4R)-4-((3-(1-methylcyclopentyl)-[1,2,4]triazolo[4,3-a]pyridin-6-yl)oxy)-1,2,3,4-tetrahydronaphthalen-1-yl)ureido)pyrimidine-2-carboxamide]: the IC50 (on p38 alpha; in assay [1]) was under 1 nM in each case.

Consider `CN(C)C(C)(C)CNC(=O)c1nc(NC(=O)N[C@H]2CC[C@@H](Oc3ccc4nnc(C5(C)CCCC5)n4c3)c3ccccc32)cc(C(C)(C)C)n1` [Example 183, 4-(tert-butyl)-N-(2-(dimethylamino)-2-methylpropyl)-6-(3-((1S,4R)-4-((3-(1-methylcyclopentyl)-[1,2,4]triazolo[4,3-a]pyridin-6-yl)oxy)-1,2,3,4-tetrahydronaphthalen-1-yl)ureido)pyrimidine-2-carboxamide], for which the results for the IC50 (at p38 alpha; in assay [1]) were under 1 nM and 1 to 5 nM, respectively.

As for `CC(C)(C)c1cc(NC(=O)N[C@H]2CC[C@@H](Oc3ccc4nnc(C5(C)CCCC5)n4c3)c3ccccc32)nc(C(=O)NCCCN2CCOCC2)n1` [Example 184, 4-(tert-Butyl)-6-(3-((1S,4R)-4-((3-(1-methylcyclopentyl)-[1,2,4]triazolo[4,3-a]pyridin-6-yl)oxy)-1,2,3,4-tetrahydronaphthalen-1-yl)ureido)-N-(3-morpholinopropyl)-pyrimidine-2-carboxamide formate salt], the IC50 (at p38 alpha; in assay [1]) was under 1 nM throughout.

`CN(C)CCNC(=O)c1cc(NC(=O)N[C@H]2CC[C@@H](Oc3ccc4nnc(C(C)(C)C)n4c3)c3ccccc32)cc(C(C)(C)C)n1` [Example 186, 6-(tert-butyl)-4-(3-((1S,4R)-4-((3-(tert-butyl)-[1,2,4]triazolo[4,3-a]pyridin-6-yl)oxy)-1,2,3,4-tetrahydronaphthalen-1-yl)ureido)-N-(2-(dimethylamino)ethyl)-picolinamide]: the IC50 (on p38 alpha; in assay [1]) was under 1 nM each time.

On to `CC(C)(C)c1cc(NC(=O)N[C@H]2CC[C@@H](Oc3ccc4nnc(C(C)(C)C)n4c3)c3ccccc32)cc(C(=O)NCCCN2CCOCC2)n1` [Example 187, 6-(tert-butyl)-4-(3-((1S,4R)-4-((3-(tert-butyl)-[1,2,4]triazolo[4,3-a]pyridin-6-yl)oxy)-1,2,3,4-tetrahydronaphthalen-1-yl)ureido)-N-(3-morpholinopropyl)-picolinamide], for which the IC50 fell in the range of 1 to 10 nM on p38 alpha and 1 to 5 nM in assay [1].

With `CN(CCO)CCNC(=O)c1cc(NC(=O)N[C@H]2CC[C@@H](Oc3ccc4nnc(C(C)(C)C)n4c3)c3ccccc32)cc(C(C)(C)C)n1` [Example 188, 6-(tert-butyl)-4-(3-((1S,4R)-4-((3-(tert-butyl)-[1,2,4]triazolo[4,3-a]pyridin-6-yl)oxy)-1,2,3,4-tetrahydronaphthalen-1-yl)ureido)-N-(2-((2-hydroxyethyl)(methyl)-amino)ethyl)picolinamide], the values for the IC50 (at p38 alpha; in assay [1]) were under 1 nM and 1 to 5 nM, respectively.

For `CC(C)(C)c1cc(NC(=O)N[C@H]2CC[C@@H](Oc3ccc4nnc(C(C)(C)C)n4c3)c3ccccc32)cc(C(=O)NCCN2CCCOCC2)n1` [Example 189, N-(2-(1,4-oxazepan-4-yl)ethyl)-6-(tert-butyl)-4-(3-((1S,4R)-4-((3-(tert-butyl)-[1,2,4]triazolo[4,3-a]pyridin-6-yl)oxy)-1,2,3,4-tetrahydronaphthalen-1-yl)ureido)picolinamide], the results for the IC50 (on p38 alpha; in assay [1]) were 1 to 10 nM and 1 to 5 nM, respectively.

On to `COCC(C)(C)c1nnc2ccc(O[C@@H]3CC[C@H](NC(=O)Nc4cc(C(=O)NCCN(C)C)nc(C(C)(C)C)c4)c4ccccc43)cn12` [Example 190, 6-(tert-butyl)-N-(2-(dimethylamino)ethyl)-4-(3-((1S,4R)-4-((3-(1-methoxy-2-methylpropan-2-yl)-[1,2,4]triazolo[4,3-a]pyridin-6-yl)oxy)-1,2,3,4-tetrahydronaphthalen-1-yl)ureido)picolinamide], for which the values for the IC50 (at p38 alpha; in assay [1]) were under 1 nM and 1 to 5 nM, respectively.

Consider `CCN(C)CCNC(=O)c1cc(NC(=O)N[C@H]2CC[C@@H](Oc3ccc4nnc(C(C)(C)C)n4c3)c3ccccc32)cc(C(C)(C)C)n1` [Example 191, 6-(tert-butyl)-4-(3-((1S,4R)-4-((3-(tert-butyl)-[1,2,4]triazolo[4,3-a]pyridin-6-yl)oxy)-1,2,3,4-tetrahydronaphthalen-1-yl)ureido)-N-(2-(ethyl(methyl)amino)-ethyl)picolinamide], for which the IC50 at p38 alpha was in the range of 1 to 10 nM; in assay [1], 1 to 5 nM.

For the compound `COCCN(C)CCNC(=O)c1cc(NC(=O)N[C@H]2CC[C@@H](Oc3ccc4nnc(C(C)(C)C)n4c3)c3ccccc32)cc(C(C)(C)C)n1` [Example 192, 6-(tert-butyl)-4-(3-((1S,4R)-4-((3-(tert-butyl)-[1,2,4]triazolo[4,3-a]pyridin-6-yl)oxy)-1,2,3,4-tetrahydronaphthalen-1-yl)ureido)-N-(2-((2-methoxyethyl)(methyl)-amino)ethyl)picolinamide], the IC50 on p38 alpha was in the range of 1 to 10 nM; in assay [1] it was 1 to 5 nM.

Regarding `COC1CN(CCNC(=O)c2cc(NC(=O)N[C@H]3CC[C@@H](Oc4ccc5nnc(C(C)(C)C)n5c4)c4ccccc43)cc(C(C)(C)C)n2)C1` [Example 193, 6-(tert-butyl)-4-(3-((1S,4R)-4-((3-(tert-butyl)-[1,2,4]triazolo[4,3-a]pyridin-6-yl)oxy)-1,2,3,4-tetrahydronaphthalen-1-yl)ureido)-N-(2-(3-methoxyazetidin-1-yl)ethyl)picolinainide], the IC50 lay within 1 to 10 nM at p38 alpha and 1 to 5 nM in assay [1].

Take `CC(C)(C)c1cc(NC(=O)N[C@H]2CC[C@@H](Oc3ccc4nnc(C(C)(C)C)n4c3)c3ccccc32)cc(C(=O)NCCN2CC[C@H](O)C2)n1` [Example 195, 6-(tert-butyl)-4-(3-((1S,4R)-4-((3-(tert-butyl)-[1,2,4]triazolo[4,3-a]pyridin-6-yl)oxy)-1,2,3,4-tetrahydronaphthalen-1-yl)ureido)-N-(2-((S)-3-hydroxypyrrolidin-1-yl)ethyl)picolinamide]: the IC50 at p38 alpha was under 1 nM; in assay [1], over 5 nM.

The record behind these values is patent publication US10364245B2 (CHIESI FARMACEUTICI S.p.A., priority 2017, dated 2019).
